Results taken from publication PMC8184781, “A histone H3K4me1-specific binding protein is required for siRNA accumulation and DNA methylation at a subset of loci targeted by RNA-directed DNA methylation” (Nature Communications, 2021).

What was measured:
[1] = system: RDM15; assay: Co-immunoprecipitation of H3K4me1 with wild-type RDM15, western blot; type: binding, Arabidopsis; conditions: wild-type RDM15 (RDM15-3xFLAG/rdm15-3 plants), anti-FLAG IP
From the text: (§1) H3K4me1 mark. a. Histone peptide array assay showing the binding preference of RDM15 to H3K4me1. Error bar represents s.d. (n=3 independent experiments). Data are presented as mean values +/- SD and the dots are the corresponding data points. b. ITC binding curves between the RDM15 tudor domain and H3K4me1 and H4K20me1 peptides indicate that H3K4me1 is the optimal binding partner for […]
(§2) The RDM15-3xFLAG/rdm15-3 and mutated
(§3) RDM15-3xMYC/rdm15-3 plants were used to perform protein immunoprecipitation with anti-FLAG and anti-MYC antibodies, respectively, and then anti-H3K4me1 antibody was used to detect H3K4me1 . d. Methylation specific PCR results showing the methylation levels at several RDM15 -dependent RdDM loci. McrBC, an enzyme cleaving methylated DNA, was used to digest genomic DNA from different pla nts with two biological replicates. Stronger PCR signal represent s lower methylation level. RDM15-3xFLAG rescued the hypomethylation phenotype in rdm15-3, however, the Mutated RDM15-3xMYC didn’t rescue the methylation phenotype .
We thank the reviewer for their comments. We will response the comments in the following with our response highlighted in red.
The authors have fully addressed my concerns.I think this paper meets the standard of a Nature […]
(§4) Moreover, the H3K4me1 mark has been previously detected by ChIP-seq at whole-genome level in a previous study (Inagaki et al., EMBO J., 2017). […]

[2] = biological target: T1, RDM15 Tudor domain (Arabidopsis thaliana, UniProt Q8GUP3); assay: Histone peptide array (MODified Histone Peptide Array), GST-fused RDM15; type: binding; conditions: several hundred combinations of histone marks
T1 construct: hexahistidine-yeast Sumo (cleaved yes); made in house; host or cells: E. coli BL21(DE3)
T1 sequence (Q8GUP3 599-663): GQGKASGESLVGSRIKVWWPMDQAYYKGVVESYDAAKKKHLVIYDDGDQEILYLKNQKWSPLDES
Method: Histone peptide array assay was performed using the MODified Histone Peptide Array kit (Active Motif) according to the manufacturer’s instructions. In brief, the slide was first blocked for 2 h at room temperature. After it was washed three times with TBST buffer [10 mM Tris·HCl (pH 7.5), 30 mM NaCl, and 0.05% Tween-20], the slide was incubated overnight with […] of GST-fused purified RDM15 protein at 4 °C in […] of binding buffer [50 mM Hepes (pH 8.0), 150 mM NaCl, 2 mM DTT, and 0.05% Nonidet P-40]. After it was washed three additional times with TBST buffer, the slide was incubated with anti-GST primary antibody at 1/3000 dilution and secondary antibody at 1/5000 dilution in TBST buffer for 1 h at room temperature, respectively. After the washing, the slide was visualized using Lumi-light ECL substrate (Roche). The intensity of the blotted slide was analyzed according to the instructions of the analysis software of the MODified Histone Peptide Array.

[3] = biological target: T1, RDM15 Tudor domain; assay: Isothermal titration calorimetry (ITC), RDM15 Tudor domain (WT); type: binding; conditions: compared with H3K4me0, H3K4me2 and H3K4me3
Method: ITC binding was measured using a Microcal PEAQ-ITC instrument (Malvern). The purified proteins were dialyzed against a buffer containing 100 mM NaCl, 20 mM HEPES, pH 7.0, and 2 mM β-mercaptoethanol and were diluted to a concentration of about 0.8–0.12 mM. The peptide was dissolved in the same buffer with a concentration of about 1.0–1.5 mM. All of the titrations were performed at 20 °C. The data were analyzed using the Origin 7.0 program.

[4] = system: mutated RDM15 (W616A/Y623A/D643A/D645A); assay: Co-immunoprecipitation of H3K4me1 with mutated RDM15, western blot; type: binding, Arabidopsis; conditions: mutated RDM15-3xMYC/rdm15-3 plants, anti-MYC IP
From the text: We expressed the mutated RDM15 (W616A/Y623A/D643A/D645A) incapable of binding to H3K4me1 in rdm15-3 mutant plants, generating mutated RDM15-3xMYC/rdm15-3 plants.
as §1, §2, §3
We thank the reviewer for their comments. […]
as §4

SMILES: CNCCCC[C@H](NC(=O)[C@@H](NC(=O)[C@H](CCCNC(=N)N)NC(=O)[C@H](C)N)[C@@H](C)O)C(=O)N[C@@H](CCC(N)=O)C(=O)N[C@H](C(=O)N[C@@H](C)C(=O)N[C@@H](CCCNC(=N)N)C(=O)N[C@@H](CCCCN)C(=O)N[C@@H](CO)C(=O)N[C@H](C(=O)NCC(=O)NCC(=O)N[C@@H](CCCCN)C(=O)N[C@@H](C)C(=O)O)[C@@H](C)O)[C@@H](C)O [H3K4me1]
- Co-immunoprecipitation of H3K4me1 [1]: co-immunoprecipitated by wild-type RDM15
- Binding in words (histone peptide array) [2]: significant binding
- Binding in words (ITC) [3]: bound much more strongly to the monomethylation state of H3K4
- Co-immunoprecipitation of H3K4me1 [4]: not by mutated RDM15
